Measurements taken from patent publication US11076597B2, “High stress resistant plant growth regulator and preparation method and use thereof” (SHANGHAI INSTITUTES FOR BIOLOGICAL SCIENCES, CHINESE …, priority 2015, dated 2021).
Entries after “also recorded” stand apart in the source; their conditions may differ. Like-named read-outs stand apart in the source and are kept apart here.

Assays:
[1] = target: T1, PYR1 receptor-HAB1 protein phosphatase complex (Arabidopsis thaliana, UniProt O49686); experiment: AlphaScreen assay: promotion of PYR1 receptor binding to PP2C protein phosphatase HAB1; settings: 6×His-SUMO-tagged PYR1 (whole coding sequence), Biotin-tagged HAB1 (aa 172-511), 100 nM each, pH 7.4, 1.5 h room temperature
T1 construct: made in house; host or cells: E. coli BL21 (DE3)
T1 sequence (O49686 1-191): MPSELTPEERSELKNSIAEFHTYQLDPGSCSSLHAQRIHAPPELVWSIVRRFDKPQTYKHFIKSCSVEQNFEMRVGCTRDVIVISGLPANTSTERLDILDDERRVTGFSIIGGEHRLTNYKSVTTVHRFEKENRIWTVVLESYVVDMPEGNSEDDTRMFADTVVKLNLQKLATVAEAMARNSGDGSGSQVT
T1 sequence (Q9CAJ0 172-511 partner limits assumed): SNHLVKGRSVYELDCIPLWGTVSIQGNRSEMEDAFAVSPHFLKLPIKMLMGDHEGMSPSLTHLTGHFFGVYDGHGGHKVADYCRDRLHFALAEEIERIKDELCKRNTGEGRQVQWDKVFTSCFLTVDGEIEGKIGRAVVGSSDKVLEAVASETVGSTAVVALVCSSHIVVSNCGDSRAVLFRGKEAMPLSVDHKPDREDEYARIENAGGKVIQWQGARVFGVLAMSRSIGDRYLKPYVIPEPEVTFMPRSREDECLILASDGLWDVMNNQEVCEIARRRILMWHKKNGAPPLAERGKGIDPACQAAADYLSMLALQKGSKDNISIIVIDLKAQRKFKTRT
Source text: The construction method of recombinant plasmids for the Arabidopsis thaliana genes PYL1 (amino acid sequence 36-211), PYL2 (amino acid sequence 14-188) with dual tags of 6×His and SUMO sequence and the Arabidopsis thaliana gene HAB1 (amino acid sequence 172-511) with the Biotin tag sequence is described in detail in “A gate-latch-lock mechanism for hormone signaling by abscisic acid receptors” (Nature, Vol 462, 2009). The construction method of recombinant plasmids for PYR1 and PYL7 (whole gene coding sequence) and Soybean GmPYL6 and rice OsPYL2 with dual tags of 6×His and SUMO sequence is the same as that for Arabidopsis PYL2.
The above recombinant plasmid is transformed into competent cell of E. coli BL21 (DE3) (purchased from NEB company), and inoculated into 200 ml of LB liquid medium containing Amp resistance (purchased from OXOID company) and cultured overnight at 37° C. at 200 rpm; and inoculated into 2 L of LB liquid medium containing Amp resistance at a ratio of 1:50-1:100 for an extended culture, and cultured at 37° C., 200 rpm for 3-4 hours, and at a low temperature of 16° C. until OD600 is about 0.8-1.0. Recombinant plasmids for PYR1/PYL1/PYL2/PYL7/GmPYL6/OsPYL2 with dual tags of 6×His and SUMO sequence were induced overnight with 100 μM of IPTG while HAB1 recombinant plasmid with the Biotin tag sequence was induced simultaneously with 100 μM of IPTG and 40 μM of biotin.
After 16 hours of induction, the bacterial solution was centrifuged at 4000 rpm for 20 minutes at 4° C. in a low-speed high-capacity centrifuge, and the bacteria cells were collected. Bacteria cells were resuspended in 50 ml of extraction buffer (containing 20 mM Tris, pH 8.0, 200 mM NaCl and 10% (v/v) glycerol) for per 2 L of bacterial solution and then subjected to pressure-breaking at […] and 4° C. for 3-5 times. The broken cells were subjected to ultracentrifugation, centrifuged at 16000 rpm for 30 minutes, and this process was repeated twice. The supernatant was collected and subjected to an affinity chromatography column.
For PYR/PYL proteins with dual tags of 6×His and SUMO sequences, 50 ml of affinity chromatography Ni column (50 ml Ni-NTA column, available from GE) was used. Firstly, the column was equilibrated with 600 ml of 10% buffer B (containing 20 mM Tris, PH 8.0, 200 mM NaCl, 500 mM imidazole and 10% glycerol), and then eluted with 200 ml of 50% buffer B and finally eluted with 100 ml of 100% buffer B. Proteins for crystal analysis were mixed with ulp1 enzyme at a molar ratio of 1000:1 for enzymatic dialysis overnight. The digested proteins were subjected to affinity chromatography on a Ni column once more. The collected solution was subjected to a HiLoad 26/60 Superdex200 gel filtration column (commercially available from GE) and eluted with an elution solution (containing 25 mM Tris, pH 8.0, 200 mM ammonium acetate, 1 mM dithiotreitol and 1 mM EDTA) to further separate and purify the protein.
For a HAB1 protein with a Biotin tag sequence, it was subjected to a 50 ml MBP affinity column (available from GE). The column was firstly equilibrated with 600 ml of 10% buffer C (containing 20 mM Tris, pH 8.0, 200 mM NaCl, 10 mM Maltose and 10% Glycerol), and eluted with 200 ml of 50% buffer C and finally eluted with 100 ml of 100% buffer C. […]

[2] = target: T2, PYL2 receptor-HAB1 complex (Arabidopsis thaliana, UniProt O80992); experiment: HAB1 phosphatase activity assay (SnRK2.6 phosphorylated polypeptide as substrate); assay type: biochemical; settings: FIG. 1a-1g; 100 nM HAB1, 500 nM PYL2
T2 construct: made in house; host or cells: E. coli BL21 (DE3)
T2 sequence (O80992 14-188): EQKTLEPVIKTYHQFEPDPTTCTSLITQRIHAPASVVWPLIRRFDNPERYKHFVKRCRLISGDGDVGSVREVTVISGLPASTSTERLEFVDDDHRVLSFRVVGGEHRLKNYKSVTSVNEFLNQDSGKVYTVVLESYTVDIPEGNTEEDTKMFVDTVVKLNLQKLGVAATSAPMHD
T2 sequence (Q9CAJ0 172-511 partner limits assumed): T1 sequence (Q9CAJ0 172-511 partner limits assumed)
Description: 50 mM imidazole, pH 7.2, 5 mM MgCl2, 0.1% β-mercaptoethanol, 0.5 μg·ml^−1 BSA, 100 nM HAB1 protein with a Biotin tag sequence, 500 nM PYL2 receptor protein with 6×His-SUMO dual tag sequence and the corresponding concentration of (+)-ABA/0224/0304/0706/0708/0713/0715/1028c/0428/1022B/NC0F4 were contained in the reaction system. The reaction system was incubated at room temperature for 30 minutes, followed by a further reaction for 30 minutes after adding an 11-amino acid phosphorylated polypeptide as a substrate. The phosphorylated polypeptide is amino acid 170-180 of SnRK2.6 protein kinase, wherein phosphorylated serine at position 175 (with a sequence of HSQPKpSTVGTP, purchased from Kingsley Company) was a known HAB1 dephosphorylation target site. After 30 minutes, chromogenic reagent (purchased from BioVision) was added and the absorbance at 650 nm was read on a microplate reader (Molecular Devices).

SMILES | EC50 ([1]; EC50, FIG. 2a) [nM] | EC50 ([1]; EC50, FIG. 2h) [nM] | inhibition of HAB1 protein phosphatase activity by promoting binding between PYL2 receptor and HAB1 [2] | EC50 ([1]; FIG. 2a, read-out: EC50) [nM]
CC1=CC(=O)CC(C)(C)[C@@]1(O)/C=C/C(C)=C\C(=O)O [ABA, Abscisic Acid, reference compound] | 3570 | 4220 | – | –
CCCN1C(=O)OC(C)c2cc(NS(=O)(=O)Cc3c(F)c(F)c(C)c(F)c3F)ccc21 (stereo not drawn) [Compound 0224] | – | – | inhibiting the activity of protein phosphatase HAB1; also recorded: inhibiting the dephosphorylation effect of HAB1 on SnRK2.6 phosphorylated polypeptide | 90.1
CCCN1C(=O)OC(C)(C)c2cc(NS(=O)(=O)Cc3c(F)c(F)c(C)c(F)c3F)ccc21 [Compound 0304] | – | – | inhibiting the activity of protein phosphatase HAB1; also recorded: inhibiting the dephosphorylation effect of HAB1 on SnRK2.6 phosphorylated polypeptide | 148
CCCN1C(=O)OCc2cc(NS(=O)(=O)Cc3c(F)c(F)c(C)c(F)c3F)ccc21 [Compound 0428] | – | – | inhibiting the activity of protein phosphatase HAB1; also recorded: inhibiting the dephosphorylation effect of HAB1 on SnRK2.6 phosphorylated polypeptide | –
CCN1C(=O)OC(C)c2cc(NS(=O)(=O)Cc3c(F)c(F)c(C)c(F)c3F)ccc21 (stereo not drawn) [Compound 0706] | – | – | inhibiting the activity of protein phosphatase HAB1; also recorded: inhibiting the dephosphorylation effect of HAB1 on SnRK2.6 phosphorylated polypeptide | –
Cc1c(F)c(F)c(CS(=O)(=O)Nc2ccc3c(c2)C(C)OC(=O)N3CCCF)c(F)c1F (stereo not drawn) [Compound 0715] | – | – | inhibiting the activity of protein phosphatase HAB1; also recorded: inhibiting the dephosphorylation effect of HAB1 on SnRK2.6 phosphorylated polypeptide | –
